From the supplement of paper PMC7023306 come the findings set out here.

The structures appear in SMILES notation. ± gives the uncertainty stated by the source.

The nature of one data set: TIMS collision cross section in N2 (TIMS CCS N2); higher = larger gas-phase ion size. To be noted: ion species: [2M-H]-; drift gas: N2 (99.4% N2, 0.6% O2); calibration: Stow et al. 2017 values for Agilent ESI-L Low Concentration Tune Mix; ionization: negative ESI.
For the molecule `O=c1c(O)c(-c2ccc(O)cc2)oc2cc(OC3OC(CO)C(O)C(O)C3O)cc(O)c12` (stereo unspecified) [kaempferol-7-O-glucoside], the “TIMS collision cross section in N2” value turned out to be 283.76 ± 0.75 Å².

Regarding `CCCCCCCCCCO[C@@H]1O[C@H](CO)[C@@H](O)[C@H](O)[C@H]1O` [n-Decyl-beta-D-glucopyranoside], the “TIMS collision cross section in N2” value came to 277.92 ± 0.32 Å².

Turning to `CCCCCCCCO[C@@H]1O[C@H](CO)[C@@H](O)[C@H](O)[C@H]1O` [n-Octyl-beta-D-glucopyranoside], the “TIMS collision cross section in N2” value was determined as 272.83 ± 0.74 Å².

Still in this data set, the particulars now being: ion species: [M-3H]-; drift gas: N2 (99.4% N2, 0.6% O2); calibration: Stow et al. 2017 values for Agilent ESI-L Low Concentration Tune Mix; ionization: negative ESI.
In the case of `O=C(O)[C@H]1O[C@@H](Oc2cc3oc(-c4ccc(O)cc4)cc(=O)c3c(O)c2O)[C@H](O)[C@@H](O)[C@@H]1O` [scutellarin (Scutellarein-7-glucuronide)], the “TIMS collision cross section in N2” value amounted to 206.59 ± 0.074 Å².

Still in this data set, the particulars now being: ion species: [M-H+HCO2H]-; drift gas: N2 (99.4% N2, 0.6% O2); calibration: Stow et al. 2017 values for Agilent ESI-L Low Concentration Tune Mix; ionization: negative ESI.
Consider `CCCCCCCCCCO[C@@H]1O[C@H](CO)[C@@H](O)[C@H](O)[C@H]1O` [n-Decyl-beta-D-glucopyranoside], for which the “TIMS collision cross section in N2” value is 198.21 ± 0.31 Å². Turning to `CCCCCCCCO[C@@H]1O[C@H](CO)[C@@H](O)[C@H](O)[C@H]1O` [n-Octyl-beta-D-glucopyranoside], the “TIMS collision cross section in N2” value amounted to 190.02 ± 0.2 Å².

`CC1(C)C[C@H]2C3=CC[C@@H]4[C@@]5(C)CC[C@H](O)[C@](C)(CO)[C@@H]5CC[C@@]4(C)[C@]3(C)CC[C@@]2(C)[C@H](O)[C@@H]1O` [soyasapogenol A]: the “TIMS collision cross section in N2” value was 224.66 ± 0.27 Å².

The same data set, now with this note: ion species: [M-H+Na+HCO2H]-; drift gas: N2 (99.4% N2, 0.6% O2); calibration: Stow et al. 2017 values for Agilent ESI-L Low Concentration Tune Mix; ionization: negative ESI.
For the molecule `O=c1c(O)c(-c2ccc(O)cc2)oc2cc(OC3OC(CO)C(O)C(O)C3O)cc(O)c12` (stereo unspecified) [kaempferol-7-O-glucoside], the “TIMS collision cross section in N2” value came out at 230.04 ± 0.3 Å². On the same count and under the same terms, the same measure for `CC1(C)CC[C@]2(C(=O)O)CC[C@]3(C)C(=CC[C@@H]4[C@@]5(C)C[C@H](O)[C@H](O)[C@@](C)(C(=O)O)[C@@H]5CC[C@]43C)[C@@H]2C1` [medicagenic acid]: 243.47 ± 0.081 Å²; for `COc1ccc(-c2cc(=O)c3c(O)c(OC)c(O)c(OC)c3o2)cc1` [nevadensin]: 199.45 ± 0.091 Å²; for `COc1cc(-c2cc(=O)c3c(O)c(OC)c(O)c(OC)c3o2)cc(O)c1OC` [scaposin]: 209.41 ± 0.26 Å².

Still in this data set, the particulars now being: ion species: [M-H]-; drift gas: N2 (99.4% N2, 0.6% O2); calibration: Stow et al. 2017 values for Agilent ESI-L Low Concentration Tune Mix; ionization: negative ESI.
For `O=c1c(O)c(-c2ccc(O)cc2)oc2cc(OC3OC(CO)C(O)C(O)C3O)cc(O)c12` (stereo unspecified) [kaempferol-7-O-glucoside], the “TIMS collision cross section in N2” value is 209.17 ± 0.14 Å². As to `CC1(C)CC[C@]2(C(=O)O)CC[C@]3(C)C(=CC[C@@H]4[C@@]5(C)C[C@H](O)[C@H](O)[C@@](C)(C(=O)O)[C@@H]5CC[C@]43C)[C@@H]2C1` [medicagenic acid], the “TIMS collision cross section in N2” value turned out to be 226.23 ± 0.27 Å². With `CCCCCCCCCCO[C@@H]1O[C@H](CO)[C@@H](O)[C@H](O)[C@H]1O` [n-Decyl-beta-D-glucopyranoside], the “TIMS collision cross section in N2” value is reported as 189.39 ± 0.39 Å².

Consider `CCCCCCCCO[C@@H]1O[C@H](CO)[C@@H](O)[C@H](O)[C@H]1O` [n-Octyl-beta-D-glucopyranoside], for which the “TIMS collision cross section in N2” value is 181.3 ± 0.15 Å².

Take `CCCCCCCCCCCCC(=O)O` [n-Tridecanoic acid]: the “TIMS collision cross section in N2” value is 159.43 ± 0.061 Å².

Take `COc1ccc(CCC(=O)c2c(O)cc(O[C@@H]3O[C@H](CO)[C@@H](O)[C@H](O)[C@H]3O[C@@H]3O[C@@H](C)[C@H](O)[C@@H](O)[C@H]3O)cc2O)cc1O` [neohesperidin dihydrochalcone]: the “TIMS collision cross section in N2” value was 232.21 ± 0.35 Å². The same measure, in the same setting: to `COc1ccc(-c2cc(=O)c3c(O)c(OC)c(O)c(OC)c3o2)cc1` [nevadensin] belongs 182.82 ± 0.12 Å²; to `COc1cc(O)c2c(c1)O[C@H](c1ccc(O)cc1)CC2=O` [sakuranetin], 168.54 ± 0.27 Å². With `COc1cc(-c2cc(=O)c3c(O)c(OC)c(O)c(OC)c3o2)cc(O)c1OC` [scaposin], the “TIMS collision cross section in N2” value is reported as 193.54 ± 0.18 Å². The same measure, in the same setting: to `COc1cc([C@@H]2Oc3c(O)cc([C@H]4Oc5cc(O)cc(O)c5C(=O)[C@@H]4O)cc3[C@H]2CO)ccc1O` [silychristin] belongs 201.63 ± 0.24 Å².
